Assay results published in patent US10227331B2 (priority 2015, dated 2019).
Where two headings read alike, the source gives them in different places.

How the values were obtained:
[1] = test system: Klebsiella pneumoniae expressing VIM-1 (IHMA599644); assay type: cell-based; details: VIM-1 (IHMA599644), with imipenem 1 μg/ml, 95% inhibition of bacterial growth
In short: (§1)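 Restoration of imipenem susceptibility (1 μg/ml imipenem) was judged by absorbance after 22–24 h at 35° C. Test compound was added to bacteria suspended 1:100 in 1.1× CAMHB from overnight blood-agar cultures.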

[2] = test system: Escherichia coli expressing NDM-1 (CLB30005, CLB30016); assay type: cell-based; details: NDM-1 (CLB30016), with imipenem 1 μg/ml, 95% inhibition of bacterial growth
In short: as §1

[3] = test system: Serratia marcescens expressing IMP-1 (CL5741); assay type: cell-based; details: IMP-1 (CL5741), with imipenem 1 μg/ml, 95% inhibition of bacterial growth
In short: as §1

[4] = test system: P. aeruginosa expressing IMP-1, efflux+ (MB9798); assay type: cell-based, Pseudomonas aeruginosa; details: for P. aeruginosa expressing IMP-1, efflux+ (MB9798) MITC95: imipenem at 2 μg/mL, in the presence of a class A, C, D serine β-lactamase inhibitor closely related to relebactam; for Efflux ratio: ratio MITC95 PA_9798/MITC95 PA_9799
From the text: (§2) The strain background is Pseudomonas aeruginosa PAO1.

[5] = test system: P. aeruginosa expressing IMP-1, efflux− (MB9799); assay: Efflux: concentration of MBL inhibitor which restores susceptibility to imipenem; assay type: cell-based, Pseudomonas aeruginosa; details: imipenem at 2 μg/mL, in the presence of a class A, C, D serine β-lactamase inhibitor closely related to relebactam
From the text: as §2

[6] = target: VIM-1 (Pseudomonas aeruginosa (strain ATCC 15692 / DSM 22644 / CIP 104116 / JCM 14847 / LMG 12228 / 1C / PRS 101 / PAO1), UniProt A0A0F7KYQ8); assay: biochemical; details: CCF2-FA substrate, 2 hours at 25° C
In short: (§3)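 IC50 values derive from 4-parameter fits of percent inhibition against inhibitor concentration on semi-log axes. Activity was monitored by fluorescence with the CCF2-FA substrate after a 2-hour, 25° C incubation of compound, enzyme and substrate.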

[7] = target: NDM-1 (Klebsiella pneumoniae, UniProt C7C422); assay: biochemical; assay type: biochemical
In short: as §3

[8] = target: IMP-1 (Serratia marcescens, UniProt P52699); assay: biochemical; assay type: biochemical; details: CCF2-FA substrate, 2 hours at 25° C; read-out: IMP-1 IC50
In short: as §3

[9] = CCF2-FA substrate, 2 hours at 25° C, read-out: NDM-1 IC50

NDM-1, sequence (C7C422 whole entry, looked up, species assumed): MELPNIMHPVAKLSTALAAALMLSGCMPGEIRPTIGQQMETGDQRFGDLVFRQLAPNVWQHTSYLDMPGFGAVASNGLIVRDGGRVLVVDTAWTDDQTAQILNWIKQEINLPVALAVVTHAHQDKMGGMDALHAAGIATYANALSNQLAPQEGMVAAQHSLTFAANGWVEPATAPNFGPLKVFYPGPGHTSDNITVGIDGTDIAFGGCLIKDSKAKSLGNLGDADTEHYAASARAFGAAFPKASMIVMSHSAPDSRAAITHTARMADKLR
IMP-1, sequence (P52699 whole entry, looked up, species assumed): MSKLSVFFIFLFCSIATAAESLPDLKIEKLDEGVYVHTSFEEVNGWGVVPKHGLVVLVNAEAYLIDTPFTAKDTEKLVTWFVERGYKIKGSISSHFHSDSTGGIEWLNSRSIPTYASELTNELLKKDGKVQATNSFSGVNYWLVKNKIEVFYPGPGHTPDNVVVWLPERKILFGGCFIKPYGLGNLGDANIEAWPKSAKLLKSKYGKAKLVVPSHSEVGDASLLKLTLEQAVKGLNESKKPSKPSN

| Structure (SMILES) | Klebsiella pneumoniae MITC95 [1] [µM] | Escherichia coli MITC95 [2] [µM] | Serratia marcescens MITC95 [3] [µM] | P. aeruginosa expressing IMP-1, efflux+ (MB9798) MITC95 [4] [µM] | Efflux ratio [4] | P. aeruginosa expressing IMP-1, efflux− (MB9799) MITC95 [5] [µM] | IC50 [6] [nM] | IC50 [7, 9] [nM] | IC50 [8] [nM] | IC50 [7] [nM] |
| --- | --- | --- | --- | --- | --- | --- | --- | --- | --- | --- |
| NCCS(=O)(=O)c1ccc(-c2ccnc3c2CCCC3)c(-c2nn[nH]n2)c1S(N)(=O)=O [Example 271, 6-(2-aminoethylsulfonyl)-3-(5,6,7,8-tetrahydroquinolin-4-yl)-2-(2H-tetrazol-5-yl)benzenesulfonamide] | 3.125 | 3.125 | 3.125 | 12.5 | 8.00 | 1.563 | 0.177 | 1.33 | 0.687 |  |
| NCCS(=O)(=O)c1ccc(C2CCNc3ccccc32)c(-c2nn[nH]n2)c1S(N)(=O)=O (stereo not drawn) [Example 272, 6-(2-aminoethylsulfonyl)-3-(1,2,3,4-tetrahydroquinolin-4-yl)-2-(2H-tetrazol-5-yl)benzenesulfonamide] | 6.25 | 3.125 | 6.25 | 100 | 63.98 | 1.563 | 0.64 |  | 6.06 | 1.84 |
| Nc1nc2c(-c3ccc(S(=O)(=O)C[C@H](N)CO)c(S(N)(=O)=O)c3-c3nn[nH]n3)cccc2[nH]1 [Example 273, 3-(2-amino-1H-benzo[d]imidazol-4-yl)-6-((R)-2-amino-3-hydroxypropylsulfonyl)-2-(2H-tetrazol-5-yl)benzenesulfonamide] | 1.563 | 0.3906 | 1.563 | 0.7813 | 1.00 | 0.7813 | 0.254 | 0.147 | 0.709 |  |
| Nc1nc2c(-c3ccc(S(=O)(=O)C[C@@H](N)CO)c(S(N)(=O)=O)c3-c3nn[nH]n3)cccc2[nH]1 [Example 274, 3-(2-amino-1H-benzo[d]imidazol-4-yl)-6-((S)-2-amino-3-hydroxypropylsulfonyl)-2-(2H-tetrazol-5-yl)benzenesulfonamide] | 1.563 | 0.7813 | 1.563 | 0.7813 | 1.00 | 0.7813 | 0.206 | 0.113 | 0.431 |  |
| C[C@@H](N)CS(=O)(=O)c1ccc(-c2cccc3c2nc(N)n3C)c(-c2nn[nH]n2)c1S(N)(=O)=O [Example 275, 3-(2-amino-1-methyl-1H-benzo[d]imidazol-4-yl)-6-((R)-2-aminopropylsulfonyl)-2-(2H-tetrazol-5-yl)benzenesulfonamide] | 1.781 | 0.5 | 0.8906 | 2.563 | 2.88 | 0.8906 | 0.696 | 0.582 | 0.84 |  |
| C[C@H](N)CS(=O)(=O)c1ccc(-c2cccc3c2nc(N)n3C)c(-c2nn[nH]n2)c1S(N)(=O)=O [Example 276, 3-(2-amino-1-methyl-1H-benzo[d]imidazol-4-yl)-6-((S)-2-aminopropylsulfonyl)-2-(2H-tetrazol-5-yl)benzenesulfonamide] | 3.125 | 0.7813 | 0.7813 | 1.563 | 2.00 | 0.7813 | 0.214 | 0.24 | 0.285 |  |
| C[C@H](CN)S(=O)(=O)c1ccc(-c2cccc3nc(N)[nH]c23)c(-c2nn[nH]n2)c1S(N)(=O)=O [Example 277, 3-(2-amino-3H-benzo[d]imidazol-4-yl)-6-((R)-1-aminopropan-2-ylsulfonyl)-2-(2H-tetrazol-5-yl)benzenesulfonamide] | 1.563 | 0.3906 | 0.7813 | 1.563 | 2.00 | 0.7813 | 0.362 | 0.527 | 1.37 |  |
| C[C@H](CN)S(=O)(=O)c1ccc(-c2cccc3c2nc(N)n3C)c(-c2nn[nH]n2)c1S(N)(=O)=O [Example 279, 3-(2-amino-1-methyl-1H-benzo[d]imidazol-4-yl)-6-((R)-1-aminopropan-2-ylsulfonyl)-2-(2H-tetrazol-5-yl)benzenesulfonamide] | 1.563 | 0.3906 | 1.563 | 3.125 | 4.00 | 0.7813 | 0.47 | 0.806 | 0.695 |  |
| C[C@@H](CN)S(=O)(=O)c1ccc(-c2cccc3c2nc(N)n3C)c(-c2nn[nH]n2)c1S(N)(=O)=O [Example 280, 3-(2-amino-1-methyl-1H-benzo[d]imidazol-4-yl)-6-((S)-1-aminopropan-2-ylsulfonyl)-2-(2H-tetrazol-5-yl)benzenesulfonamide] | 1.563 | 0.3906 | 0.7813 | 3.125 | 4.00 | 0.7813 | 0.445 | 0.224 | 0.954 |  |
| NC[C@H](O)CS(=O)(=O)c1ccc(-c2cccc3[nH]c(N)nc23)c(-c2nn[nH]n2)c1S(N)(=O)=O [Example 282, 3-(2-amino-1H-benzo[d]imidazol-4-yl)-6-((S)-3-amino-2-hydroxypropylsulfonyl)-2-(2H-tetrazol-5-yl)benzenesulfonamide] | 0.8359 | 0.3438 | 0.5156 | 0.418 | 1.00 | 0.418 | 0.28 | 0.157 | 0.777 |  |
| CCn1c(N)nc2c(-c3ccc(S(=O)(=O)C4CNC4)c(S(N)(=O)=O)c3-c3nn[nH]n3)cccc21 [Example 283, 3-(2-amino-1-ethyl-1H-benzo[d]imidazol-4-yl)-6-(azetidin-3-ylsulfonyl)-2-(2H-tetrazol-5-yl)benzenesulfonamide] | 1.563 | 0.3906 | 1.563 | 6.25 | 4.00 | 1.563 | 0.348 | 0.116 | 0.496 |  |
| CCn1c(N)nc2c(-c3ccc(S(=O)(=O)CCN)c(S(N)(=O)=O)c3-c3nn[nH]n3)cccc21 [Example 284, 3-(2-amino-1-ethyl-1H-benzo[d]imidazol-4-yl)-6-(2-aminoethylsulfonyl)-2-(2H-tetrazol-5-yl)benzenesulfonamide] | 1.563 | 0.3906 | 1.563 | 3.125 | 4.00 | 0.7813 | 0.507 | 0.289 | 0.327 |  |
| C[C@H](CN)S(=O)(=O)c1ccc(-c2cccc3sc(N)nc23)c(-c2nn[nH]n2)c1S(N)(=O)=O [Example 285, 3-(2-aminobenzo[d]thiazol-4-yl)-6-((R)-1-aminopropan-2-ylsulfonyl)-2-(2H-tetrazol-5-yl)benzenesulfonamide] | 1.563 | 3.125 | 1.563 | 3.125 | 4.00 | 0.7813 | 0.364 | 0.37 | 0.534 |  |
